Article PMC7921093, “Human METTL7B is an alkyl thiol methyltransferase that metabolizes hydrogen sulfide and captopril” (Scientific Reports, 2021)

Assays:
Type in all cases: biochemical
[1] = biological target: T1, METTL7B (methyltransferase-like protein 7B) (Homo sapiens, UniProt Q6UX53); test: MTaseGlo substrate screen (AdoHcy formation) with purified enzyme
T1 construct: gene TMT1B; His-GST-METTL7B, N-terminal His-GST tag with (AP)5 linker
T1 sequence (Q6UX53 1-244): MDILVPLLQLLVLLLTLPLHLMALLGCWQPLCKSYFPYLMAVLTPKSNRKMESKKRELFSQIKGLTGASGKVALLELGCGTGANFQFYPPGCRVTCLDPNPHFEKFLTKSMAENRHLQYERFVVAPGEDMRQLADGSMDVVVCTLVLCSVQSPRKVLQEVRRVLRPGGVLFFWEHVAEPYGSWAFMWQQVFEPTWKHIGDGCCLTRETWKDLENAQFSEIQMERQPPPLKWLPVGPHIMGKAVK
Source text: MTaseGlo substrate screen (AdoHcy formation) with purified enzyme on METTL7B (methyltransferase-like protein 7B) | D-Penicillamine|++

[2] = biological target: T1, METTL7B (methyltransferase-like protein 7B); test: Michaelis-Menten kinetics of S-methyl captopril formation, LC-MS/MS
[3] = biological target: T1, METTL7B (methyltransferase-like protein 7B); test: S-methyl captopril formation by purified enzyme, LC-MS/MS; D98A inactive
[4] = biological target: T1, METTL7B (methyltransferase-like protein 7B); test: methylsulfide formation, LC-MS/MS after monobromobimane derivatization, saturable kinetics

CC(C)(S)[C@@H](N)C(=O)O [D-penicillamine]
MTaseGlo substrate screen (AdoHcy formation) with purified enzyme [1]: D-Penicillamine|++

C[S+](CC[C@H](N)C(=O)[O-])C[C@H]1O[C@@H](n2cnc3c(N)ncnc32)[C@H](O)[C@@H]1O (stereo partly drawn) [S-adenosyl-L-methionine]
Michaelis-Menten kinetics of S-methyl captopril formation, LC-MS/MS [2]: the AdoMet activity curve was saturable and exhibited classic Michaelis–Menten kinetics

C[C@H](CS)C(=O)N1CCC[C@H]1C(=O)O [captopril]
S-methyl captopril formation by purified enzyme, LC-MS/MS; D98A inactive [3]: concentration-dependent formation of S-methyl captopril was observed upon incubation with purified wild-type His-GST-METTL7B

S [hydrogen sulfide]
methylsulfide formation, LC-MS/MS after monobromobimane derivatization, saturabl [4]: Peak area ratio (PAR) versus concentration curve for hydrogen sulfide methylation as measured by formation of methylsulfide
